Reference: ChEMBL document CHEMBL1944517, “New inhibitors of dihydroorotate dehydrogenase (DHODH) based on the 4-hydroxy-1,2,5-oxadiazol-3-yl (hydroxyfurazanyl) scaffold” (Eur J Med Chem, 2012)

Each compound was assayed against Dihydroorotate dehydrogenase (quinone), mitochondrial (Rattus norvegicus, UniProt Q63707) (assay: Inhibition of dihydroorotate dehydrogenase in Wistar rat liver mitochondrial/microsomal membranes measured for 5 mins by 2,6-dichlorophenolindophenol reduction-based spectrophotometry).
Sequence of Dihydroorotate dehydrogenase (quinone), mitochondrial (Q63707 whole entry): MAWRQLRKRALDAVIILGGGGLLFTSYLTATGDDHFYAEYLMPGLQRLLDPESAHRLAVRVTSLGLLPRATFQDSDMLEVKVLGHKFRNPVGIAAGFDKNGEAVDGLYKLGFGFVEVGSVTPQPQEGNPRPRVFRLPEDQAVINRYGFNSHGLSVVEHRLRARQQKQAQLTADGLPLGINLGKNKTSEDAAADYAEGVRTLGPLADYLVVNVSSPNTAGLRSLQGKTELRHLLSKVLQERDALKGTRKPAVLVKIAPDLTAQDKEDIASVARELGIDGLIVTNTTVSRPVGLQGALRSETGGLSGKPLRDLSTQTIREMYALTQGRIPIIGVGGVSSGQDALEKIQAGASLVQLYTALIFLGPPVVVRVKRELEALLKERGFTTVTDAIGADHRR
Format: cell membranes, Membrane
`O=C(Nc1ccc(C(F)(F)F)cc1)c1nonc1O` was tested, and the IC50 was 4.3 µM. Work on `O=C(Nc1ccc(-c2ccccc2)cc1)c1nonc1O` yielded an IC50 of 11 µM. With `O=C(Nc1ccccc1-c1ccccc1)c1no[nH]c1=O` the IC50 was 45 µM. Compound `O=C(Nc1ccc(-c2ccc(C(F)(F)F)cc2)cc1)c1nonc1O` has an IC50 of 49 µM. Compound `O=C(Nc1ccc(-c2cccc(C(F)(F)F)c2)cc1)c1nonc1O` has an IC50 of 25 µM. In the case of `O=C(Nc1c(F)cc(-c2ccccc2)cc1F)c1no[nH]c1=O`, the IC50 is reported as 0.88 µM. Compound `O=C(Nc1c(F)c(F)c(-c2ccccc2)c(F)c1F)c1no[nH]c1=O` has an IC50 of 0.066 µM. `O=C(Nc1c(F)cc(-c2cccc(C(F)(F)F)c2)cc1F)c1nonc1O` gave an IC50 of 0.87 µM. `O=C(Nc1c(F)cc(-c2ccc(C(F)(F)F)cc2)cc1F)c1nonc1O` was tested, and the IC50 was 2.3 µM. `O=C(Nc1c(F)c(F)c(-c2ccc(C(F)(F)F)cc2)c(F)c1F)c1no[nH]c1=O` showed an IC50 of 0.49 µM. With `O=C(Nc1c(F)c(F)c(-c2cccc(C(F)(F)F)c2)c(F)c1F)c1nonc1O` the IC50 was 0.12 µM. With `O=C(Nc1c(F)c(F)c(-c2cccc(OC(F)(F)F)c2)c(F)c1F)c1no[nH]c1=O` the IC50 was 0.05 µM.
